SMILES strings stand for the structures. ≈ marks a conversion by molar mass, not a printed value. Where a SMILES comes first, the peptide text is derived from it. The star is where a group is joined. Boc = CC(C)(C)OC(=O)*; NHBn = c1ccc(CN*)cc1

Series [1] relates to Pseudomonas aeruginosa. Kind of series: Antibacterial activity against Pseudomonas aeruginosa ATCC 9027. In kind it is functional, organism-based.
Series [2] concerns Staphylococcus aureus. Nature of the series: Antibacterial activity against methicillin-resistant Staphylococcus aureus DSM 50128509 after 15 to 18 hrs under aerobic condition by modified broth microdilution method. In kind it is functional.
In series [3] the test system is Staphylococcus epidermidis. Kind of series: Antibacterial activity against methicillin-resistant Staphylococcus epidermidis DSM 50160384 after 15 to 18 hrs under aerobic condition by modified broth microdilution method. In kind it is functional.
Series [4] deals with Staphylococcus epidermidis. Kind of series: Antibacterial activity against methicillin-resistant Staphylococcus epidermidis DSM 50160384. The format is functional, organism-based.
Series [5] deals with Escherichia coli. Kind of series: Antibacterial activity against Escherichia coli ATCC 35218 after 15 to 18 hrs under aerobic condition by modified broth microdilution method. In kind it is functional.
Series [6] has as its system Klebsiella pneumoniae. Kind of series: Antibacterial activity against Klebsiella pneumoniae ATCC 700603 after 15 to 18 hrs under aerobic condition by modified broth microdilution method. The format is functional.
Series [7] relates to Klebsiella pneumoniae. Nature of the series: Antibacterial activity against Klebsiella pneumoniae ATCC 700603. In kind it is functional, organism-based.
Series [8] deals with Pseudomonas aeruginosa. Nature of the series: Antibacterial activity against Pseudomonas aeruginosa ATCC 9027 after 15 to 18 hrs under aerobic condition by modified broth microdilution method. In kind it is functional.
For series [9], the system named is Candida albicans. Nature of the series: Antifungal activity against Candida albicans ATCC 10231 after 15 to 18 hrs under aerobic condition by modified broth microdilution method. The format is functional.
The subject of series [10] is Candida albicans. Kind of series: Antifungal activity against Candida albicans ATCC 10231. The format is functional, organism-based.
The subject of series [11] is L929. Nature of the series: Cytotoxicity against mouse L929 cells up to 200 ug/mL after 5 days by MTT assay. In kind it is cell-based. Particulars: l929, 120 h.
Series [12] concerns Escherichia coli. Nature of the series: Antibacterial activity against Escherichia coli ATCC 35218. The format is functional, organism-based.
In series [13] the test system is Staphylococcus aureus. Kind of series: Antibacterial activity against methicillin-resistant Staphylococcus aureus DSM 50128509. The format is functional, organism-based.

In series [1], `O=C(O)c1cn(C2CC2)c2cc(N3CCNCC3)c(F)cc2c1=O` [CIPROFLOXACIN] registered an IC50 of 1.18 µg/mL (≈ 3.56 µM).

On to `CC(C)(C)OC(=O)N[C@@H](Cc1c[nH]c2ccccc12)C(=O)N[C@@H](Cc1c[nH]cn1)C(=O)NCc1ccccc1` (Boc-Trp-His-NHBn), for which the MIC is above 200 µg/mL in series [2]; 200 µg/mL (≈ 377 µM) in series [3]; above 200 µg/mL in [5]; 200 µg/mL (≈ 377 µM) in series [6]; 200 µg/mL (≈ 377 µM) in [8]; 200 µg/mL (≈ 377 µM) in [9]. Besides, the IC50 worked out at 15.6 µg/mL (≈ 29.4 µM) in series [4], 21.2 µg/mL (≈ 40 µM) in series [7], 40.7 µg/mL (≈ 76.7 µM) in series [1] and 9.7 µg/mL (≈ 18.3 µM) in series [10]. For the same compound, the Activity entry in series [11] is “Non-toxic”.

Consider `COC(=O)[C@H](CCCNC(=N)N)NC(=O)[C@H](Cc1c[nH]c(C2CCC2)n1)NC(=O)OC(C)(C)C`, for which the MIC was above 200 µg/mL in series [2]; above 200 µg/mL in series [3]; 200 µg/mL (≈ 417 µM) in series [5]; 200 µg/mL (≈ 417 µM) in series [6]; above 200 µg/mL in series [8]; above 200 µg/mL in series [9]. The IC50 in series [12] was determined as 18.1 µg/mL (≈ 37.8 µM); in series [7] it was 15 µg/mL (≈ 31.2 µM). In addition, the Activity result in series [11] was “Non-toxic”.

Turning to `COC(=O)[C@H](CCCNC(=N)N)NC(=O)[C@H](Cc1c[nH]c(C2CCCCC2)n1)NC(=O)OC(C)(C)C`, the MIC in series [2] is 200 µg/mL (≈ 394 µM); in series [3] it was 100 µg/mL (≈ 197 µM); in series [5], 100 µg/mL (≈ 197 µM); in [6], above 200 µg/mL; in series [8], 200 µg/mL (≈ 394 µM); in [9] it was 100 µg/mL (≈ 197 µM). The IC50 in series [13] came to 10.1 µg/mL (≈ 19.9 µM); in [4], 10 µg/mL (≈ 19.7 µM); in [12], 4.93 µg/mL (≈ 9.71 µM); in series [1], 27.5 µg/mL (≈ 54.2 µM); in [10] it was 9.44 µg/mL (≈ 18.6 µM). In series [11], the Activity result is “Non-toxic”.

For the compound `CC(C)(C)OC(=O)N[C@@H](Cc1c[nH]c(C23CC4CC(CC(C4)C2)C3)n1)C(=O)N[C@@H](CCCNC(=N)N)C(=O)NCc1ccccc1`, the MIC in series [2] was 20 µg/mL (≈ 31.5 µM); in [3], 100 µg/mL (≈ 158 µM); in [5], above 200 µg/mL; in [6] it was 100 µg/mL (≈ 158 µM); in [8], 100 µg/mL (≈ 158 µM); in series [9], above 200 µg/mL. Further, the IC50 in [13] stood at 7.47 µg/mL (≈ 11.8 µM); in [4] it was 11.5 µg/mL (≈ 18.1 µM); in series [7], 15.1 µg/mL (≈ 23.8 µM); in series [1], 27.2 µg/mL (≈ 42.9 µM). Besides, the Activity result in [11] is on record as “Non-toxic”.

As to `N[C@@H](Cc1c[nH]c2ccccc12)C(=O)N[C@@H](Cc1c[nH]c(C23CC4CC(CC(C4)C2)C3)n1)C(=O)NCc1ccccc1`, the MIC in series [2] was 100 µg/mL (≈ 177 µM); in [3] it was 50 µg/mL (≈ 88.5 µM); in series [5], 200 µg/mL (≈ 354 µM); in [6], 200 µg/mL (≈ 354 µM); in [8] it was above 200 µg/mL; in series [9] it was 50 µg/mL (≈ 88.5 µM). For the same compound, the IC50 in series [13] worked out at 16 µg/mL (≈ 28.3 µM); in series [4], 4.7 µg/mL (≈ 8.32 µM); in [12], 21.3 µg/mL (≈ 37.8 µM); in series [7], 32 µg/mL (≈ 56.6 µM); in series [10] it was 8.25 µg/mL (≈ 14.6 µM). Also, in series [11], the Activity entry is given as “Non-toxic”.

Take `CC(C)c1nc(C[C@H](N)C(=O)N[C@@H](CCCNC(=N)N)C(=O)NCc2ccccc2)c[nH]1`: the minimal inhibitory concentration (MIC) is 100 µg/mL (≈ 226 µM) in series [2]; 200 µg/mL (≈ 452 µM) in series [3]; above 200 µg/mL in [5]; above 200 µg/mL in [6]; 200 µg/mL (≈ 452 µM) in series [8]; above 200 µg/mL in [9]. Moreover, the results for the IC50 in [13], in series [4] and in series [1] were 4.85 µg/mL (≈ 11 µM), 12.8 µg/mL (≈ 28.8 µM) and 27.8 µg/mL (≈ 62.7 µM), respectively. Also, the Activity result in series [11] is reported as “Non-toxic”.

For the compound `COC(=O)[C@H](CCCNC(=N)N)NC(=O)[C@@H](N)Cc1c[nH]c(C(C)(C)C)n1`, the MIC is 20 µg/mL (≈ 52.4 µM) in series [2]; 20 µg/mL (≈ 52.4 µM) in series [3]; 200 µg/mL (≈ 524 µM) in series [5]; 200 µg/mL (≈ 524 µM) in [6]; above 200 µg/mL in series [8]; 100 µg/mL (≈ 262 µM) in [9]. In addition, the IC50 in series [13] was found to be 5.39 µg/mL (≈ 14.1 µM); in [4] it was 2.53 µg/mL (≈ 6.63 µM); in series [12], 18.5 µg/mL (≈ 48.4 µM); in series [7] it was 10.5 µg/mL (≈ 27.6 µM); in series [10] it was 9.65 µg/mL (≈ 25.3 µM). In addition, in series [11], the Activity entry is recorded as “Non-toxic”.

As to `COC(=O)[C@H](CCCNC(=N)N)NC(=O)[C@H](Cc1c[nH]c(C23CC4CC(CC(C4)C2)C3)n1)NC(=O)OC(C)(C)C`, the MIC in series [2] was 50 µg/mL (≈ 89.3 µM); in series [3], 50 µg/mL (≈ 89.3 µM); in [5], 100 µg/mL (≈ 179 µM); in series [6] it was 200 µg/mL (≈ 357 µM); in series [8] it was 100 µg/mL (≈ 179 µM); in series [9], 200 µg/mL (≈ 357 µM). In addition, the IC50 is 9.77 µg/mL (≈ 17.5 µM) in series [13]; 6.87 µg/mL (≈ 12.3 µM) in series [4]; 8.33 µg/mL (≈ 14.9 µM) in series [12]; 31.5 µg/mL (≈ 56.2 µM) in [7]; 25.7 µg/mL (≈ 45.9 µM) in series [1]; 16.1 µg/mL (≈ 28.8 µM) in series [10]. For the same compound, the Activity entry in [11] was “Non-toxic”.

With `COC(=O)[C@H](CCCNC(=N)N)NC(=O)[C@@H](N)Cc1c[nH]c(C23CC4CC(CC(C4)C2)C3)n1`, the MIC is 10 µg/mL (≈ 21.8 µM) in series [2]; 20 µg/mL (≈ 43.5 µM) in [3]; above 200 µg/mL in series [5]; 200 µg/mL (≈ 435 µM) in series [6]; 200 µg/mL (≈ 435 µM) in [8]; above 200 µg/mL in [9]. The 50% inhibitory concentration (IC50) came out at 3.67 µg/mL (≈ 7.99 µM) in series [13], 4.28 µg/mL (≈ 9.31 µM) in series [4], 19.4 µg/mL (≈ 42.2 µM) in [7] and 35.5 µg/mL (≈ 77.2 µM) in series [1]. In addition, in series [11], the Activity entry is given as “Non-toxic”.

With `N=C(N)NCCC[C@H](NC(=O)[C@@H](N)Cc1c[nH]c(C2CCCCC2)n1)C(=O)NCc1ccccc1`, the MIC was 20 µg/mL (≈ 41.4 µM) in [2]; 5 µg/mL (≈ 10.4 µM) in series [3]; 200 µg/mL (≈ 414 µM) in series [5]; 200 µg/mL (≈ 414 µM) in [6]; above 200 µg/mL in series [8]; 200 µg/mL (≈ 414 µM) in series [9]. The IC50 worked out at 2.06 µg/mL (≈ 4.27 µM) in series [13]; 1 µg/mL (≈ 2.07 µM) in series [4]; 17.5 µg/mL (≈ 36.3 µM) in series [12]; 23.5 µg/mL (≈ 48.7 µM) in series [7]; 18 µg/mL (≈ 37.3 µM) in series [10]. In addition, the Activity entry in [11] is on record as “Non-toxic”.

In the case of `N=C(N)NCCC[C@H](NC(=O)[C@@H](N)Cc1c[nH]c(C23CC4CC(CC(C4)C2)C3)n1)C(=O)NCc1ccccc1`, the MIC in [2] is 5 µg/mL (≈ 9.35 µM); in series [3], 10 µg/mL (≈ 18.7 µM); in series [5] it was 200 µg/mL (≈ 374 µM); in series [6] it was 100 µg/mL (≈ 187 µM); in [8], above 200 µg/mL; in series [9] it was 50 µg/mL (≈ 93.5 µM). Moreover, the IC50 in series [13] came out at 2.15 µg/mL (≈ 4.02 µM); in [4], 1.19 µg/mL (≈ 2.23 µM); in [12], 9.29 µg/mL (≈ 17.4 µM); in series [7], 16.1 µg/mL (≈ 30.2 µM); in series [10], 7.46 µg/mL (≈ 14 µM). The Activity result in [11] is “Non-toxic”.

On to `CC(C)c1nc(C[C@H](NC(=O)OC(C)(C)C)C(=O)N[C@@H](CCCNC(=N)N)C(=O)NCc2ccccc2)c[nH]1`, for which the MIC in series [2] is 100 µg/mL (≈ 184 µM); in series [3] it was 100 µg/mL (≈ 184 µM); in series [5], 200 µg/mL (≈ 369 µM); in series [6] it was above 200 µg/mL; in series [8], 200 µg/mL (≈ 369 µM); in series [9], above 200 µg/mL. Moreover, the 50% inhibitory concentration (IC50) in series [13] amounted to 17.9 µg/mL (≈ 33.1 µM); in series [4] it was 12.7 µg/mL (≈ 23.3 µM); in series [12], 23.7 µg/mL (≈ 43.7 µM); in series [1], 45.1 µg/mL (≈ 83.2 µM). Also, the Activity result in series [11] is recorded as “Non-toxic”.

(Values after ChEMBL document CHEMBL1154782, “Discovery of Trp-His and His-Arg analogues as new structural classes of short antimicrobial peptides” (J Med Chem, 2009).)
